Test results as given in ChEMBL document CHEMBL4330059, “Discovery of N1-(4-((7-(3-(4-ethylpiperazin-1-yl)propoxy)-6-methoxyquinolin-4-yl)oxy)-3,5-difluorophenyl)-N3-(2-(2,6-difluorophenyl)-4-oxothiazolidin-3-yl)urea as a multi-tyrosine kinase inhibitor for drug-sensitive and drug-resistant cancers treatment” (Eur J Med Chem, 2019).
The source made the active and inactive calls. No cut-off for these calls is given here.

Key:
[1] = molecular target: T1, Hepatocyte growth factor receptor (Homo sapiens, UniProt P08581); assay: Inhibition of c-Met in human HT-29 cells assessed as decrease in Akt phosphorylation at 3 ug/mL after 72 hrs by Western blot analysis; format: cell-based
T1 sequence (P08581 whole entry): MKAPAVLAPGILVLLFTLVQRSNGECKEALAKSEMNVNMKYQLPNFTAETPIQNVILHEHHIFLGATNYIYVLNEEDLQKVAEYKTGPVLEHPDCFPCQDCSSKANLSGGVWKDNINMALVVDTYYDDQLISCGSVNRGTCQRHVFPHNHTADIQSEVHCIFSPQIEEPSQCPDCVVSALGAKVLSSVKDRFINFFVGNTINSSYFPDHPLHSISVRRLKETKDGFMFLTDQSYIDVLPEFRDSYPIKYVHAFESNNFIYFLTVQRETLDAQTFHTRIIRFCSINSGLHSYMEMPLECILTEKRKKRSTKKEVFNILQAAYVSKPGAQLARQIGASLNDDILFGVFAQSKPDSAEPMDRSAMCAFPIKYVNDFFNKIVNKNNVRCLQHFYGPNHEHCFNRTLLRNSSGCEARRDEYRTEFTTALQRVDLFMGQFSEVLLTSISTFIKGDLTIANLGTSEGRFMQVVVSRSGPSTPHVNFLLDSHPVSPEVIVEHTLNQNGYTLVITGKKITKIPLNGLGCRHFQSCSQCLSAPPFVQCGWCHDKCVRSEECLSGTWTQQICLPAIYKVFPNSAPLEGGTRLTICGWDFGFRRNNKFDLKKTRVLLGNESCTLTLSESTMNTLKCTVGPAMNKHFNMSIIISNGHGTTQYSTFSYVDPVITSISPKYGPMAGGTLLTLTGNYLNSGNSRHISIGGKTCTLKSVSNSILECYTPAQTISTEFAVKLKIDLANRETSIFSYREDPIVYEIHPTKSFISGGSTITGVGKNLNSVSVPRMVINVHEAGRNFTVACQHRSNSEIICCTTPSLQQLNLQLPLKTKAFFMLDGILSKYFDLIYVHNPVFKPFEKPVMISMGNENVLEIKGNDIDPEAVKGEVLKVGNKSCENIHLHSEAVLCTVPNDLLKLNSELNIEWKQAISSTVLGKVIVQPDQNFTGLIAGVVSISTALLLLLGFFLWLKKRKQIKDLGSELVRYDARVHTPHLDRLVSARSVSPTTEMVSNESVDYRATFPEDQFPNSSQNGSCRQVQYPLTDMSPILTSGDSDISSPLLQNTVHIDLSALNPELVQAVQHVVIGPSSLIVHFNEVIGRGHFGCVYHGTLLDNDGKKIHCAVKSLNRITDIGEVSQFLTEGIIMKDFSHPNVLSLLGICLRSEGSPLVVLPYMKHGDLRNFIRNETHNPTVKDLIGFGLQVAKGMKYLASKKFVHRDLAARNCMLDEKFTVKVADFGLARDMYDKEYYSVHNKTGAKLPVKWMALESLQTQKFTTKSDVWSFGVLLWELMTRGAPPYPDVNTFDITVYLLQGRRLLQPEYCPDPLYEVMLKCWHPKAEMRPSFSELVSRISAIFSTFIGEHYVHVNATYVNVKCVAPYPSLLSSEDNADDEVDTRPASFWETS

HT-29 [2] = assay: Antimigratory activity against human HT-29 cells at <3.33 ug/mL after 48 to 72 hrs by wound healing assay; format: functional, cell-based
HT-29 [3] = assay: Induction of apoptosis in human HT-29 cells assessed as late apoptotic cells at 0.3 ug/mL after 72 hrs by Annexin V-FITC/propidium iodide staining-based flow cytometric analysis (reference value: 0.1%); format: functional
FHC = assay: Cytotoxicity against human FHC cells after 72 hrs by MTT assay; format: cell-based
MCF7 = assay: Antiproliferative activity against human MCF7 cells after 72 hrs by MTT assay; format: functional, cell-based; conditions: MCF7, 72 h
[4] = Antiproliferative activity against human MCF7/DX cells after 72 hrs by MTT assay; format: functional, cell-based
[5] = molecular target: Proto-oncogene tyrosine-protein kinase Src (Homo sapiens, UniProt P12931); assay: Inhibition of c-Src (unknown origin) using FAM-labelled peptide and ATP incubated for 10 mins by mobility shift assay
Chain of Proto-oncogene tyrosine-protein kinase Src (P12931 2-536 limits assumed): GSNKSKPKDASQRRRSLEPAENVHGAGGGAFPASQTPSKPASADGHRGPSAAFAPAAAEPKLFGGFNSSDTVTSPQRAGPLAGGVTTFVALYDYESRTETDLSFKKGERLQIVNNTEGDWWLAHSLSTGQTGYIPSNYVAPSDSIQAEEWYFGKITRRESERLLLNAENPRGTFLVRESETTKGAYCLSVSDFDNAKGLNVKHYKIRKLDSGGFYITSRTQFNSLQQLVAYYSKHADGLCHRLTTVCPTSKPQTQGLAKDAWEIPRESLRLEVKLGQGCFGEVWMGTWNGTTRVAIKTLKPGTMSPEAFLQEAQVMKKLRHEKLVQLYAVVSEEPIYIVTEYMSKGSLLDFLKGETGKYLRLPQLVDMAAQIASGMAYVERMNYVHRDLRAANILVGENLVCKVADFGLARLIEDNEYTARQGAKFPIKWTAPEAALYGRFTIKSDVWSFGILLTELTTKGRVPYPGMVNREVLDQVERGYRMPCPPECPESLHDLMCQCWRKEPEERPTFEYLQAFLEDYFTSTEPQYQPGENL

HT-29 [6] = assay: Induction of apoptosis in human HT-29 cells assessed as early apoptotic cells at 1 ug/mL after 72 hrs by Annexin V-FITC/propidium iodide staining-based flow cytometric analysis (reference value: 0%); format: functional
[7] = molecular target: T1, Hepatocyte growth factor receptor; assay: Inhibition of c-Met (unknown origin) using FAM-labelled peptide and ATP incubated for 10 mins by mobility shift assay
[8] = molecular target: Vascular endothelial growth factor receptor 2 (Homo sapiens, UniProt P35968); assay: Inhibition of KDR (unknown origin) using FAM-labelled peptide and ATP incubated for 10 mins by mobility shift assay
HT-29 [9] = assay: Antiproliferative activity against human HT-29 cells after 72 hrs by MTT assay; format: functional, cell-based; conditions: HT-29, 72 h
HT-29 [10] = assay: Antimigratory activity against human HT-29 cells at 3.33 ug/mL after 48 to 72 hrs by wound healing assay; format: functional, cell-based
[11] = Selectivity index, ratio of IC50 for human FHC cells to IC50 for human HT-29 cells; format: toxicity; conditions: FHC cells and HT-29 cells, read-out: Ratio IC50
A549 = assay: Antiproliferative activity against human A549 cells after 72 hrs by MTT assay; format: functional, cell-based; conditions: A549, 72 h
[12] = molecular target: ALK tyrosine kinase receptor (Homo sapiens, UniProt Q9UM73); assay: Inhibition of ALK (unknown origin) using FAM-labelled peptide and ATP incubated for 10 mins by mobility shift assay
Chain of ALK tyrosine kinase receptor (Q9UM73 whole entry): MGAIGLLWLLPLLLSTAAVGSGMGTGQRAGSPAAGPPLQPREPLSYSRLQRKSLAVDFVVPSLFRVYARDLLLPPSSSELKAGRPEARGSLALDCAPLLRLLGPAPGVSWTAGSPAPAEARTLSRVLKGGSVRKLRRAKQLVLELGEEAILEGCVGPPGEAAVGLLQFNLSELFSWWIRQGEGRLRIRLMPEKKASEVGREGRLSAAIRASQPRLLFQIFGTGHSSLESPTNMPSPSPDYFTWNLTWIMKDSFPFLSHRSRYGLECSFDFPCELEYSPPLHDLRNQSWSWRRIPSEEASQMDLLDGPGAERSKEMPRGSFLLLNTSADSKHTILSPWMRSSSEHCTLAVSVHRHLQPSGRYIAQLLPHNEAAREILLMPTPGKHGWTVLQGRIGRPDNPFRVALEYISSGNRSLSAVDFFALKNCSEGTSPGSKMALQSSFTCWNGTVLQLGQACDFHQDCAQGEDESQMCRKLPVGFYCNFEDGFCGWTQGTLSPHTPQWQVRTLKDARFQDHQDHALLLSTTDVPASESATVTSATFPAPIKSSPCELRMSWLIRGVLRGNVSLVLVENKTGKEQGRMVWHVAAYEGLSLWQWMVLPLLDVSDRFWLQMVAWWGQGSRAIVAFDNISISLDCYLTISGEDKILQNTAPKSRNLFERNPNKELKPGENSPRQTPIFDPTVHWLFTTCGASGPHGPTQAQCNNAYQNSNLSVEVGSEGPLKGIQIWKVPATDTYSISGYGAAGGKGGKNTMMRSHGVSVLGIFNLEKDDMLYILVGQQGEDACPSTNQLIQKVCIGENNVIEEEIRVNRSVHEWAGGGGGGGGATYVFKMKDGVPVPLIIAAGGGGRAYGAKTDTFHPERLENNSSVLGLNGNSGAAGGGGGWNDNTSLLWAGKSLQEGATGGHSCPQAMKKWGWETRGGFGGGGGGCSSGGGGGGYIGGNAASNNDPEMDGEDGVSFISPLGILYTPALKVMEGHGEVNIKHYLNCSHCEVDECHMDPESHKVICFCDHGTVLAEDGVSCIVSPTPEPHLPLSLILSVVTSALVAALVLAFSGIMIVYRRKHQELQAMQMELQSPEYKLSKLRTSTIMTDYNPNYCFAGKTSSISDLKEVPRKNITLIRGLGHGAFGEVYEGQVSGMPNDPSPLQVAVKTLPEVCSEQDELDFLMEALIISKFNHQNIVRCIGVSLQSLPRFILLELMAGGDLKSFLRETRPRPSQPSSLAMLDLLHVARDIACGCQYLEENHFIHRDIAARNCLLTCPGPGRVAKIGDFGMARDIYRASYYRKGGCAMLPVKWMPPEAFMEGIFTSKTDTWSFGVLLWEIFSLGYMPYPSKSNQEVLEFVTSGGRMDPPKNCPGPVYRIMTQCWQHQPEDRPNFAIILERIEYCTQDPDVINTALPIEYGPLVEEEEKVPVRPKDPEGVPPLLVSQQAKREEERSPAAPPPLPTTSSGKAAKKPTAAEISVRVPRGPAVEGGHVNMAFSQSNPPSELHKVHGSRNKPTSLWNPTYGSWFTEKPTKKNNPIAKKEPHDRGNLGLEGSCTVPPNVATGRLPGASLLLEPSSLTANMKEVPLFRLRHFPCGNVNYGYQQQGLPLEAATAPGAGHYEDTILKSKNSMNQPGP

A549/CDDP = assay: Antiproliferative activity against human A549/CDDP cells after 72 hrs by MTT assay; format: functional, cell-based
HT-29 [13] = assay: Induction of apoptosis in human HT-29 cells after 72 hrs by Annexin V-FITC/propidium iodide staining-based flow cytometric analysis; format: functional, cell-based
HT-29 [14] = assay: Induction of apoptosis in human HT-29 cells assessed as late apoptotic cells at 3 ug/mL after 72 hrs by Annexin V-FITC/propidium iodide staining-based flow cytometric analysis (reference value: 0.1%); format: functional
HT-29 [15] = assay: Induction of apoptosis in human HT-29 cells assessed as late apoptotic cells at 1 ug/mL after 72 hrs by Annexin V-FITC/propidium iodide staining-based flow cytometric analysis (reference value: 0.1%); format: functional
HT-29 [16] = assay: Induction of apoptosis in human HT-29 cells assessed as early apoptotic cells at 0.3 ug/mL after 72 hrs by Annexin V-FITC/propidium iodide staining-based flow cytometric analysis (reference value: 0%); format: functional
HT-29 [17] = assay: Induction of apoptosis in human HT-29 cells assessed as early apoptotic cells at 0.1 ug/mL after 72 hrs by Annexin V-FITC/propidium iodide staining-based flow cytometric analysis (reference value: 0%); format: functional
HT-29 [18] = assay: Induction of apoptosis in human HT-29 cells assessed as late apoptotic cells at 0.1 ug/mL after 72 hrs by Annexin V-FITC/propidium iodide staining-based flow cytometric analysis (reference value: 0.1%); format: functional
[19] = molecular target: T2, Tyrosine-protein kinase receptor UFO (Homo sapiens, UniProt P30530); assay: Inhibition of AXL (unknown origin) using FAM-labelled peptide and ATP incubated for 10 mins by mobility shift assay
T2 sequence (P30530 whole entry): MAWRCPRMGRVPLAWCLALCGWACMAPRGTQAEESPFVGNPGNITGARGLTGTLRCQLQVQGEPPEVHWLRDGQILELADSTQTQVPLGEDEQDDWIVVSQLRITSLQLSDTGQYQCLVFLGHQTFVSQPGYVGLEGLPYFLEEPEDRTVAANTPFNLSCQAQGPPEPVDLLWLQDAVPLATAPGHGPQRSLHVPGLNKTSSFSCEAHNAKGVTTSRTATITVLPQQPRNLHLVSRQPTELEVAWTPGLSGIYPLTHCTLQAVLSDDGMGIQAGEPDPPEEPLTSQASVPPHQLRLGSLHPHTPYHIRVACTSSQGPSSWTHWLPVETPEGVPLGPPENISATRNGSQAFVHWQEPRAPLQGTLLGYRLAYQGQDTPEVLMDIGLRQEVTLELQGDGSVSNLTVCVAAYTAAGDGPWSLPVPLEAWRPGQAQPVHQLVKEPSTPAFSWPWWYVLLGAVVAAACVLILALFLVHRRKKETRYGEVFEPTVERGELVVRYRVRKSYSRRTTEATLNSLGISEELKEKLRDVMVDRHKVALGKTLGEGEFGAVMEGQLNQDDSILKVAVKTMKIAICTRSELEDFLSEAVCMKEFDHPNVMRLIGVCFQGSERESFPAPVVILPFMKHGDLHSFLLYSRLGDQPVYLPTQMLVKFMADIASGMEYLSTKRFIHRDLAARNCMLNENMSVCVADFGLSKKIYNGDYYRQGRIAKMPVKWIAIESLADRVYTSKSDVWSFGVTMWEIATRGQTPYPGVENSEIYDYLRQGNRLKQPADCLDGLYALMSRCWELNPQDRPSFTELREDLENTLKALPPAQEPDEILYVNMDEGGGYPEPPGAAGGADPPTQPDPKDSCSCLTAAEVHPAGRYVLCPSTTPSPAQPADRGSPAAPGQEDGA

[20] = molecular target: Epidermal growth factor receptor (Homo sapiens, UniProt P00533); assay: Inhibition of EGFR (unknown origin) using FAM-labelled peptide and ATP incubated for 10 mins by mobility shift assay
[21] = molecular target: Macrophage-stimulating protein receptor (Homo sapiens, UniProt Q04912); assay: Inhibition of Ron (unknown origin) using FAM-labelled peptide and ATP incubated for 10 mins by mobility shift assay
Chain of Macrophage-stimulating protein receptor (Q04912 25-304 limits assumed): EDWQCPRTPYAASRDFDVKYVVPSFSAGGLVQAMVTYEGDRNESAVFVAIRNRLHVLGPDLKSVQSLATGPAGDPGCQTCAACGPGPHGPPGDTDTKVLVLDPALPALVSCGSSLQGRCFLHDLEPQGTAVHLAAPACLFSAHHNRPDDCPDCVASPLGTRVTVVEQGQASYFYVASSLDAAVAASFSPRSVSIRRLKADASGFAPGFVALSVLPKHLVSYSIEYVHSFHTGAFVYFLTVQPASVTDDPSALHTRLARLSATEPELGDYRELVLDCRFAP
Chain of Macrophage-stimulating protein receptor (Q04912 310-1400 limits assumed): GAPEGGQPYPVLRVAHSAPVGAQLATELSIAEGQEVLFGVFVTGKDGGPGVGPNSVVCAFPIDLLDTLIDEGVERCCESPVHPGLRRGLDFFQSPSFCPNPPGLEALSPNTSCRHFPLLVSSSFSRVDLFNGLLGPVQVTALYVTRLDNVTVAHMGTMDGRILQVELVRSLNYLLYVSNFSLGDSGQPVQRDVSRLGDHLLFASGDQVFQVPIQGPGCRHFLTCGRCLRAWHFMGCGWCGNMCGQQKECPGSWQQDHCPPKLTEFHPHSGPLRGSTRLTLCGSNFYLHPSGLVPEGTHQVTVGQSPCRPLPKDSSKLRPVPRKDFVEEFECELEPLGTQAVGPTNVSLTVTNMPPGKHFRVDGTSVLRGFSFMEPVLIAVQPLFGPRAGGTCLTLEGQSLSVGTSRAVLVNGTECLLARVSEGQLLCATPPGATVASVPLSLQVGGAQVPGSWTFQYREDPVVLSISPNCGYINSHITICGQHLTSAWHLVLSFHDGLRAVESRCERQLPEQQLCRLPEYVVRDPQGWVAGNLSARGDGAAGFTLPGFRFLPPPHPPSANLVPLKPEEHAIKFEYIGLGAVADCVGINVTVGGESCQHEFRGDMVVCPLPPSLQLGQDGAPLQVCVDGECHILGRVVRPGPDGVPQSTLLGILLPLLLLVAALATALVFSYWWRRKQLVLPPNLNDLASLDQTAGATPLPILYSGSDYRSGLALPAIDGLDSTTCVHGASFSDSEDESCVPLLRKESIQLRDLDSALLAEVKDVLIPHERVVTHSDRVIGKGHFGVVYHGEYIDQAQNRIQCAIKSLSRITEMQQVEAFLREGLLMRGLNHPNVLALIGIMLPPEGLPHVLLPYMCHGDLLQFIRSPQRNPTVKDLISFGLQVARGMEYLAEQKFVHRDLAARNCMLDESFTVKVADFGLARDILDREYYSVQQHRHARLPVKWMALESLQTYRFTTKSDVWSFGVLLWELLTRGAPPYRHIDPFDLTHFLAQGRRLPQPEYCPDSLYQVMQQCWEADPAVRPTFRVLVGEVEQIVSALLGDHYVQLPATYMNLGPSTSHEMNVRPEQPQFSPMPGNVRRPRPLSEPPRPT

HT-29 [22] = assay: Cytotoxicity against human HT-29 cells assessed as increase in dead cells after 72 hrs by yoyo-1 dye-based fluorescence assay; format: functional, cell-based
HT-29 [23] = assay: Antiproliferative activity against human HT-29 cells assessed as cell confluence level at 10 ug/ml after 72 hrs by IncuCyte live-cell imaging assay (reference value: 87.5%); format: functional
[24] = molecular target: Receptor tyrosine-protein kinase erbB-2 (Homo sapiens, UniProt P04626); assay: Inhibition of HER-2 (unknown origin) using FAM-labelled peptide and ATP incubated for 10 mins by mobility shift assay
HT-29 [25] = assay: Antiproliferative activity against human HT-29 cells assessed as cell confluence level at 0.37 ug/ml after 0 to 12 hrs by IncuCyte live-cell imaging assay (reference value: 87.5%); format: functional
HT-29 [26] = assay: Cytotoxicity against human HT-29 cells assessed as increase in dead cells at 3.33 ug/mL up to 72 hrs by yoyo-1 dye-based fluorescence assay; format: functional, cell-based
HT-29 [27] = assay: Cytotoxicity against human HT-29 cells assessed as increase in dead cells at 0.01 ug/mL after 72 hrs by yoyo-1 dye-based fluorescence assay; format: functional, cell-based
[28] = molecular target: Insulin-like growth factor 1 receptor (Homo sapiens, UniProt P08069); assay: Inhibition of IGF-1R (unknown origin) using FAM-labelled peptide and ATP incubated for 10 mins by mobility shift assay
[29] = molecular target: T1, Hepatocyte growth factor receptor; assay: Inhibition of c-Met in human HT-29 cells assessed as decrease in ERK1/2 phosphorylation at 3 ug/mL after 72 hrs by Western blot analysis; format: cell-based
HT-29 [30] = assay: Antiproliferative activity against human HT-29 cells after 72 hrs by IncuCyte live-cell imaging assay; format: functional, cell-based
MDA-MB-231 = assay: Antiproliferative activity against human MDA-MB-231 cells after 72 hrs by MTT assay; format: functional, cell-based; conditions: MDA-MB-231, 72 h
[31] = molecular target: Mast/stem cell growth factor receptor Kit (Homo sapiens, UniProt P10721); assay: Inhibition of c-Kit (unknown origin) using FAM-labelled peptide and ATP incubated for 10 mins by mobility shift assay
[32] = molecular target: T1, Hepatocyte growth factor receptor; assay: Inhibition of c-Met phosphorylation in human HT-29 cells at 3 ug/mL after 72 hrs by Western blot analysis; format: cell-based
HT-29 [33] = assay: Induction of apoptosis in human HT-29 cells assessed as early apoptotic cells at 3 ug/mL after 72 hrs by Annexin V-FITC/propidium iodide staining-based flow cytometric analysis (reference value: 0%); format: functional

CCN1CCN(CCCOc2cc3nccc(Oc4c(F)cc(NC(=O)NN5C(=O)CSC5c5c(F)cccc5F)cc4F)c3cc2OC)CC1 (stereo not drawn)
inhibition [1]: Active
Activity (HT-29 [2]): inactive
Activity (HT-29 [3]): 9.6%
IC50 (FHC): 1180 nM
IC50 (MCF7): 1500 nM
IC50 [4]: 3800 nM
IC50 [5]: 240 nM
Activity (HT-29 [6]): 70.2%
IC50 [7]: 15 nM
IC50 [8]: 850 nM
IC50 (HT-29 [9]): 73 nM
Activity (HT-29 [10]): Active
selectivity ratio [11]: 16.2
IC50 (A549): 350 nM
IC50 [12]: > 10000 nM
IC50 (A549/CDDP): 630 nM
Activity (HT-29 [13]): Dose-dependent effect
Activity (HT-29 [14]): 10.3%
Activity (HT-29 [15]): 11%
Activity (HT-29 [16]): 55.1%
Activity (HT-29 [17]): 17.4%
Activity (HT-29 [18]): 9.9%
IC50 [19]: 53 nM
IC50 [20]: 520 nM
IC50 [21]: 2.9 nM
Activity (HT-29 [22]): Dose-dependent effect
Activity (HT-29 [23]): 24.3%
IC50 [24]: > 10000 nM
Activity (HT-29 [25]): 63.6%
Activity (HT-29 [26]): Active
Activity (HT-29 [27]): Active
IC50 [28]: 2100 nM
inhibition [29]: Active
Activity (HT-29 [30]): Dose-dependent effect
IC50 (MDA-MB-231): 3100 nM
IC50 [31]: 64 nM
inhibition [32]: Active
Activity (HT-29 [33]): 74.5%
